Data set [1] deals with T1, recombinant human dopamine D2L receptors (Homo sapiens, UniProt P14416).
T1 construct: expressed in transfected cells; host or cells: HEK-293 (HEK-D2L), membrane homogenates
The data set can be described thus: Dopamine Binding Assay. The conditions noted are these: HEK-D2L cell membranes, 150 pM [3H]-spiperone, Cheng and Prusoff. The essentials: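 Competition binding on HEK-293 membranes stably expressing human D2L (~5 μg protein) with 150 pM [3H]-spiperone, 1.5 h at 22 °C in 50 mM Tris pH 7.4, 1 mM EDTA, 6 mM MgCl2. Filtration read-out; non-specific binding defined with 2 μM (+)butaclamol, Ki by Cheng-Prusoff.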

The target in data set [2] is T2, human serotonin transporters (Homo sapiens, UniProt P31645).
T2 construct: expressed in transfected cells; host or cells: HEK-293 (HEK-hSERT), membrane homogenates
T2 sequence (P31645 whole entry): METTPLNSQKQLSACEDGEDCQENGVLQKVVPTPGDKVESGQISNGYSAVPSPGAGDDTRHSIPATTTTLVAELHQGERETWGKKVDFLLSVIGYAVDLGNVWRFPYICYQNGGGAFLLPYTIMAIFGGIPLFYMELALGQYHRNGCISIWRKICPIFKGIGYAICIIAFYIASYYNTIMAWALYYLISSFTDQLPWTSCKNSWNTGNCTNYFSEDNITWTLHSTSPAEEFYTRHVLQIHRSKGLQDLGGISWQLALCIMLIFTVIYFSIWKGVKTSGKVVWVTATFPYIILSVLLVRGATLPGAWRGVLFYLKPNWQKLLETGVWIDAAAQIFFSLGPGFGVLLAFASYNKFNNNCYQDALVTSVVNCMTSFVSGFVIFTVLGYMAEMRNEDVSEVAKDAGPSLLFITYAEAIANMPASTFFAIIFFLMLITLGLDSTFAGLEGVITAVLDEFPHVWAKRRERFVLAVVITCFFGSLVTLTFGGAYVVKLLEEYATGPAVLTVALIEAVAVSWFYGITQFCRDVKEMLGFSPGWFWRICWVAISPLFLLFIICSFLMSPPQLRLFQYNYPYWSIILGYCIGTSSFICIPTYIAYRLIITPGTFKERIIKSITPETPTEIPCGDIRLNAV
The data set can be described thus: Serotonin Transporter Binding Assay. The settings on record: HEK-hSERT cell membranes, 1 nM [3H]-citalopram, Cheng and Prusoff. The essentials: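 Displacement of 1 nM [^3H]-citalopram (1 hr, 25° C, Tris pH 7.4 with NaCl/KCl) from membranes of HEK-293 cells stably expressing human SERT, with bound ligand read after filtration. 10 μM fluoxetine defined non-specific binding. Ki values were derived via Cheng–Prusoff from IC50 displacement-curve midpoints.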

Structures can show the parent of a compound that is named as a salt. Where two headings read alike, the source gives them in different places.

T1 sequence (P14416 whole entry): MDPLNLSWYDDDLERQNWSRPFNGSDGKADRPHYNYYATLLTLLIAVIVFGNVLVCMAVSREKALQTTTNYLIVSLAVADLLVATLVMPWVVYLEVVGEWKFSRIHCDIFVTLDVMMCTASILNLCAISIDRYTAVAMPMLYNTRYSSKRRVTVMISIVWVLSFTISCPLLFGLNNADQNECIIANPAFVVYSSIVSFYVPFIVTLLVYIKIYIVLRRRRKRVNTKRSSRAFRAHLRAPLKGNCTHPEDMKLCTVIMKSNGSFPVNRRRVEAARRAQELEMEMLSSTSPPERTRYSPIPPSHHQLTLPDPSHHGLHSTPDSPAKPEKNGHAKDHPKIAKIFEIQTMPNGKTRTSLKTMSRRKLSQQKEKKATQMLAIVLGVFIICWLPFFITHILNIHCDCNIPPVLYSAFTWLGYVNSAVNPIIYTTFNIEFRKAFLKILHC

Consider `CN(C)CC1CC1c1c[nH]c2ccc(C#N)cc12` (single isomer, unassigned) [Example 1, Trans-2-[5-Cyanoindol-3-yl]-1-(N,N-dimethylaminomethyl)cyclopropane], for which the melting point lay in the range of 120 to 121 °C. Besides, the Ki in data set [1] is more than 1000 nM. The compound further yielded a Ki in data set [2] (SERT Ki (nM)) of less than 1 nM.
As to `CN(C)CC1CC1Cc1c[nH]c2ccc(F)cc12` (racemic) [Example 147, [2-(5-Fluoro-1H-indol-3-ylmethyl)-cyclopropylmethyl]-dimethylamine], the melting point lay within 239 to 241 °C. Moreover, the Ki in data set [1] was in the range of 100 to 1000 nM. In data set [2] (read-out: SERT Ki), the Ki fell in the range of 10 to 100 nM.
In the case of `CN(C)C[C@H]1C[C@@H]1c1c[nH]c2ccc(F)cc12` [Example 4, (1S,2S)-trans-1-(N,N-dimethylaminomethyl)-2-[5-fluoroindol-3-yl]-cyclopropane], the melting point was in the range of 88 to 90 °C. In addition, in data set [1], the Ki was more than 1000 nM. In data set [2] (SERT Ki (nM)), this compound came in with a Ki of less than 1 nM.
On to `CN(C)CC1CC1c1c[nH]c2ccc(F)cc12` (single isomer, unassigned) [Example 2, Trans-1-(N,N-dimethylaminomethyl)-2-[5-fluoroindol-3-yl]cyclopropane], for which the melting point is 199 to 200 °C (dec.). Moreover, in data set [1], the Ki is 100 to 1000 nM. Moreover, the Ki in data set [2] (read-out: SERT Ki) lay in the range of 1 to 10 nM.
As to “trans-2-[5-Cyanoindol-3-yl]-1-[N,N-methyl-2-amino(isopropylcarbamoyl)ethylaminomethyl]-cyclopropane [Example 6]”, the Ki in data set [1] is more than 1000 nM; in data set [2] (read-out: SERT Ki), 1 to 10 nM.
The corresponding values for `Fc1ccc2[nH]cc(C3CC3CNC34C[C@H]5C[C@@H](C3)C[C@@H](C4)C5)c2c1` (stereo partly shown) [Example 139] are 10 to 100 nM and 10 to 100 nM.
For `CCNCC1CC1c1csc2ccccc12` (stereo not shown) [Example 169, (2-Benzo[b]thiophen-3-yl-cyclopropylmethyl)-ethyl-amine], the Ki in data set [1] is 100 to 1000 nM; in data set [2] (read-out: SERT Ki), 10 to 100 nM.
With `Fc1ccc2[nH]cc(C3CC3CN3CCCC3)c2c1` (stereo not drawn) [Example 84, trans-2-[5-Fluoroindol-3-yl]-1-[pyrrolidin-1-yl-methyl]-cyclopropane], the figures for the Ki in data set [1] and in data set [2] (read-out: SERT Ki) were 100 to 1000 nM and 1 to 10 nM, respectively.
The corresponding values for `CCN(CCNC(=O)OC(C)C)C[C@@H]1C[C@H]1c1c[nH]c2ccc(F)cc12` (relative stereo) [Example 111] are 10 to 100 nM and 1 to 10 nM.
The corresponding values for `N#Cc1ccc2[nH]cc(C3CC3CNCc3ccccn3)c2c1` (stereo not drawn) [Example 14, trans-2-[5-Cyanoindol-3-yl]-1-[N-(2-pyridylmethyl)aminomethyl]-cyclopropane] are 100 to 1000 nM and 10 to 100 nM.
Regarding `COC(=O)NCCCN(C)C[C@@H]1C[C@H]1c1c[nH]c2ccc(C#N)cc12` (relative stereo) [Example 89, trans-2-[5-Cyanoindol-3-yl]-1-[N,N-methyl-2-amino(methylcarbamoyl)propylaminomethyl]-cyclopropane], the Ki in data set [1] was more than 1000 nM; in data set [2] (read-out: SERT Ki), 1 to 10 nM.
The corresponding values for `CN(CC1CC1c1c[nH]c2ccc(C#N)cc12)c1ccccc1` (stereo not shown) [Example 138] are more than 1000 nM and 10 to 100 nM.
Consider `Fc1ccc2[nH]cc(C3CC3CNCC3CCCCC3)c2c1` (stereo not drawn) [Example 71, trans-1-[N-Cyclohexylmethylaminomethyl]-2-[5-fluoroindol-3-yl]-cyclopropane], for which the inhibitory constant (Ki) in data set [1] and in data set [2] (read-out: SERT Ki) was 10 to 100 nM in each case.
With `COc1ccc(CCNC[C@@H]2C[C@H]2c2c[nH]c3ccc(F)cc23)cc1` (relative stereo) [Example 82], the Ki in data set [1] and in data set [2] (read-out: SERT Ki) was 10 to 100 nM throughout.
For the compound `CCN(CC)C[C@@H]1C[C@H]1c1c[nH]c2ccc(C#N)cc12` (relative stereo) [Example 48], the inhibitory constant (Ki) lay in the range of 100 to 1000 nM in data set [1] and 1 to 10 nM in data set [2] (read-out: SERT Ki).
The corresponding values for `CCOC(=O)NCCCN(CC)C[C@@H]1C[C@H]1c1c[nH]c2ccc(F)cc12` (relative stereo) [Example 113] are 100 to 1000 nM and 10 to 100 nM.
`CN(C)C[C@@H]1C[C@H]1c1c[nH]c2ccc(C#N)cc12` [Example 127a, (1R,2R)-trans-2-[5-Cyanoindol-3-yl]-1-(N,N-dimethylaminomethyl)cyclopropane maleate salt]: the Ki in data set [1] is more than 1000 nM; in data set [2] (read-out: SERT Ki) it was 10 to 100 nM.
`N#Cc1ccc2[nH]cc(C3CC3CN3CCNCC3)c2c1` (stereo not drawn) [Example 35, trans-2-[5-Cyanoindol-3-yl]-1-(piperazin-1-yl-methyl)-cyclopropane]: the Ki in data set [1] is more than 1000 nM; in data set [2] (SERT Ki (nM)), 1 to 10 nM.

The record behind these values is patent US6822100B2 (Bristol-Myers Squibb Company, priority 2001, dated 2004).
